EC50 and IC50 data for 18 molecules are collected here from PMC9966414, “Pharmacological Profiling of KATP Channel Modulators: An Outlook for New Treatment Opportunities for Migraine” (Pharmaceuticals, 2023).

Bounds are passed on as bounds.

Test [1] has as its target T1, Kir6.2/SUR1 (Homo sapiens, UniProt Q09428+Q14654).
T1 construct: gene KCNJ11; full-length human subunits co-expressed stably in HEK293 cells; GenScript vectors; four Kir6.2 plus four SUR1
In words: thallium-flux fluorescence assay (FLIPR, BTC/AM). In kind it is cell-based. An excerpt:
thallium-flux fluorescence assay (FLIPR, BTC/AM) on Kir6.2/SUR1

In test [2] the target is T2, Kir6.2/SUR2A (Homo sapiens, UniProt O60706+Q14654).
T2 construct: gene KCNJ11; full-length human subunits co-expressed stably in HEK293 cells; GenScript vectors; four Kir6.2 plus four SUR2A
Briefly: thallium-flux fluorescence assay (FLIPR, BTC/AM). Type of test: cell-based. An excerpt:
(§1) thallium-flux fluorescence assay (FLIPR, BTC/AM) on Kir6.2/SUR2A

Test [3] concerns the target T3, Kir6.1/SUR2B (Homo sapiens, UniProt O60706+Q15842).
T3 construct: gene KCNJ8; full-length human subunits co-expressed stably in HEK293 cells; GenScript vectors; four Kir6.1 plus four SUR2B
Briefly: thallium-flux fluorescence assay (FLIPR, BTC/AM). In kind it is cell-based. From the text:
thallium-flux fluorescence assay (FLIPR, BTC/AM) on Kir6.1/SUR2B

A short description of test [4]: thallium-flux fluorescence assay (FLIPR, BTC/AM). Type of test: cell-based, Homo sapiens. The following applies: read-out: Kir6.1/SUR2B / EC50.
From the text: as §1

Test [5] in a line: thallium-flux fluorescence assay (FLIPR, BTC/AM). The following applies: read-out: Kir6.2/SUR1 / IC50. In kind it is cell-based, Homo sapiens.

T3 sequence (Q15842 whole entry): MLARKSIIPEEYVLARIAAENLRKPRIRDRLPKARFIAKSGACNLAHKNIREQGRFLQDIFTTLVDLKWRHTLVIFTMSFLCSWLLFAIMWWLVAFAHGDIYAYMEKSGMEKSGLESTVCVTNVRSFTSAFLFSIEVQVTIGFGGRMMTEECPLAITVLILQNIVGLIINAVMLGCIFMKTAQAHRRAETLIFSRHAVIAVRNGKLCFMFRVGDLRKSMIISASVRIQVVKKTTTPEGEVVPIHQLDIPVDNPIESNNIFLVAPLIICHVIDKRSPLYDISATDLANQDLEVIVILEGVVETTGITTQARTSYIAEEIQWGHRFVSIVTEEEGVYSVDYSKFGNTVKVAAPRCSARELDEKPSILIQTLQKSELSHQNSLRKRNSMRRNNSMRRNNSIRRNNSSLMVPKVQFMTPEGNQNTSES
T3 sequence (O60706 1-1549 isoform O60706-2): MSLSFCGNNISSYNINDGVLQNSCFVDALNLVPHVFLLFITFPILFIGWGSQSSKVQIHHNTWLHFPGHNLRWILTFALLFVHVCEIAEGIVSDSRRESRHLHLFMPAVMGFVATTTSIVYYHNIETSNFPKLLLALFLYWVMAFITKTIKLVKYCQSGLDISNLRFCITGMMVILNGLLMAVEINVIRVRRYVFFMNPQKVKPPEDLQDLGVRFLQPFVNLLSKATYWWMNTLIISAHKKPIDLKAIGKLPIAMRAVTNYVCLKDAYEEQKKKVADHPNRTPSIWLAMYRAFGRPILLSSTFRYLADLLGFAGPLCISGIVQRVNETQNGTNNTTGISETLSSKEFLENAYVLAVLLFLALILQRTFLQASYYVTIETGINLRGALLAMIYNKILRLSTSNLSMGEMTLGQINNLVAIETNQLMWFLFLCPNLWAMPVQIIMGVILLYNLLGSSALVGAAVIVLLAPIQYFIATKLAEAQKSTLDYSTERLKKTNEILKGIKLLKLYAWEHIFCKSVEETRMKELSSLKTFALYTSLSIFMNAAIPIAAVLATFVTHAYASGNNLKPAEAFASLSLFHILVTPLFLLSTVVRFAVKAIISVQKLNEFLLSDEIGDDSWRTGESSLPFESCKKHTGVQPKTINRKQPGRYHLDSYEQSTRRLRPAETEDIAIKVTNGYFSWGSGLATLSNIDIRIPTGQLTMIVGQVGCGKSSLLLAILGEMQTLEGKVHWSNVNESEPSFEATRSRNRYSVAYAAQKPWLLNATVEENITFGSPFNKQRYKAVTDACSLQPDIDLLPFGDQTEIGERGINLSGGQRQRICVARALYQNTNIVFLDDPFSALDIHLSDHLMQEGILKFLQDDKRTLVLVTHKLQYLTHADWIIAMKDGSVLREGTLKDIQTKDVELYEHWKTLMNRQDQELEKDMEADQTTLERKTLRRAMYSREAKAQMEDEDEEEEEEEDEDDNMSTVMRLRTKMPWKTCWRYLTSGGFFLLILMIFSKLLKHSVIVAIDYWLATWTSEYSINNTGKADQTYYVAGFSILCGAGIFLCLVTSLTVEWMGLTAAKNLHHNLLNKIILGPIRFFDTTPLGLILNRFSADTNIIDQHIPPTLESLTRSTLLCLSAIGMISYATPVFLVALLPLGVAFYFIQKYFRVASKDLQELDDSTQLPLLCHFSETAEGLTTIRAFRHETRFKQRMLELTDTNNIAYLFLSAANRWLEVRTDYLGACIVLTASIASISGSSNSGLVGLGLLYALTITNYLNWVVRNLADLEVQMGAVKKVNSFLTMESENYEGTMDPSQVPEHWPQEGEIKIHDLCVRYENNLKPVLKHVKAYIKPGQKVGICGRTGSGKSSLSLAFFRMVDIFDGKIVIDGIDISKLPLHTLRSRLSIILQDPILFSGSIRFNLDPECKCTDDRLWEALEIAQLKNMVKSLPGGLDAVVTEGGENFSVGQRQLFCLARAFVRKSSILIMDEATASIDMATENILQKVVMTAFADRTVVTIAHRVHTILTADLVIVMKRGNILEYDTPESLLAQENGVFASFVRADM
T2 sequence (Q14654 whole entry): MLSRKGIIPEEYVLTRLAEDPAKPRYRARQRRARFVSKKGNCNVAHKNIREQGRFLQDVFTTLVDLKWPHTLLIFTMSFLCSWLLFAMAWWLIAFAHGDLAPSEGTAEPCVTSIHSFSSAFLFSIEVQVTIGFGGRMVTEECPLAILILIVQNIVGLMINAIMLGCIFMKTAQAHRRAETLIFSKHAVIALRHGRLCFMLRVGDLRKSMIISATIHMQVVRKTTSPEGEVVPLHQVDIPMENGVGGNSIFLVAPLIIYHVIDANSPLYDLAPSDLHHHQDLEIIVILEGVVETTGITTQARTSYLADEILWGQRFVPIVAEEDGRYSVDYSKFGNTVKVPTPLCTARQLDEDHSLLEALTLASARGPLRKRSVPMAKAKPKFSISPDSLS
T2 sequence (O60706 whole entry): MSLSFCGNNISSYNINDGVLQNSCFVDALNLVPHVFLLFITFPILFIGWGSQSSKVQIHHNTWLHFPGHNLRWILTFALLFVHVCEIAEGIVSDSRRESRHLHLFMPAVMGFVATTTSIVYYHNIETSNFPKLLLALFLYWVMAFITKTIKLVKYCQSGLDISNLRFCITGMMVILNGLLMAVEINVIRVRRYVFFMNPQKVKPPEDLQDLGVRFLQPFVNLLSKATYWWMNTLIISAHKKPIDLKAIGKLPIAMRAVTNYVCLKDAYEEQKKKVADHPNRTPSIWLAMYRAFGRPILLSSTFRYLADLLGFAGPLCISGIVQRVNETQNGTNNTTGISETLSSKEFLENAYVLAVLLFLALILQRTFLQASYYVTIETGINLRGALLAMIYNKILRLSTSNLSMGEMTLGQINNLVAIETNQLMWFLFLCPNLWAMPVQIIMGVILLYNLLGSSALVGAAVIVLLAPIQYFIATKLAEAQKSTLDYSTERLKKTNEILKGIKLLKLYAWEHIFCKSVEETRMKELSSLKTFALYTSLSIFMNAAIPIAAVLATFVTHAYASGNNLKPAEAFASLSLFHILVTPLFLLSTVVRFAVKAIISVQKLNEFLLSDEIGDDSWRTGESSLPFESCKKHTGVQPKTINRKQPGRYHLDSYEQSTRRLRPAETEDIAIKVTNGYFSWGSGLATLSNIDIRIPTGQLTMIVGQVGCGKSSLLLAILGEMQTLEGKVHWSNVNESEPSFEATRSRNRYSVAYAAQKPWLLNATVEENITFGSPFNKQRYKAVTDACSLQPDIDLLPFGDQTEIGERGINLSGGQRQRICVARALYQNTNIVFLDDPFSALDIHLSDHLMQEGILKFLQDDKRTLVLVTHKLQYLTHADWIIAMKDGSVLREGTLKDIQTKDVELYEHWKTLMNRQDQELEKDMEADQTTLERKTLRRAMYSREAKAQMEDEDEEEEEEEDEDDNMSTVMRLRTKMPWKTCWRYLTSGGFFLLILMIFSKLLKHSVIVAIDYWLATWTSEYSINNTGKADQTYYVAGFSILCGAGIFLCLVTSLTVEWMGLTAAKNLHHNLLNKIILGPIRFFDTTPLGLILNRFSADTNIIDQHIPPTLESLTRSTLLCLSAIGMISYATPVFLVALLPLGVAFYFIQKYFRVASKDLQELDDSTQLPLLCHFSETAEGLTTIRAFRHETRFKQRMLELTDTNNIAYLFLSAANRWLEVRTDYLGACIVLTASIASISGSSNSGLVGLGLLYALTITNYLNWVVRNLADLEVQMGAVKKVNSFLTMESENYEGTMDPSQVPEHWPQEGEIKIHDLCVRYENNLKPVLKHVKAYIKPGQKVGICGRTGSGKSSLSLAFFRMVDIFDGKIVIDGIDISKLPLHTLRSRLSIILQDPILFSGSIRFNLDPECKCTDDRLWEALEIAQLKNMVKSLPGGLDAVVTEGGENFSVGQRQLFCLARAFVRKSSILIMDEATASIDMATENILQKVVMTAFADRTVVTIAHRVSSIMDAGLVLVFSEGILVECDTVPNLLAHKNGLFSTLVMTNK

Take `O=C1CCCC2=C1[C@H](c1ccc(F)c(Br)c1)C1=C(CCS1(=O)=O)N2` [A-278637]: the values for the EC50 in test [1], in test [2] and in test [3] were greater than 30000 nM, 1600 ± 890 nM and 170 ± 89 nM, respectively.

With `CC1(C)Oc2ccc(C#N)cc2[C@H](N(Cc2ncc[nH]2)c2ccc(Cl)cc2)[C@H]1O` [BMS-191095], the EC50 in test [4] and in test [3] was greater than 30000 nM throughout.

`CC1=NS(=O)(=O)c2cc(Cl)ccc2N1` [Diazoxide]: the EC50 in test [2] was greater than 100000 nM; in test [3] it was 9700 ± 5700 nM.

Consider `COc1ccc(Cl)cc1C(=O)NCCc1ccc(S(=O)(=O)NC(=O)NC2CCCCC2)cc1` [Glibenclamide], for which the IC50 in test [2] stood at 9.9 ± 4.1 nM; in test [3] it was 21 ± 14 nM.

In the case of `Cc1ccc(S(=O)(=O)NC(=O)NN2CC3CCCC3C2)cc1` (centres unmarked) [Gliclazide], the results for the IC50 in test [1], in test [2] and in test [3] were 610 ± 450 nM, 55000 ± 22000 nM and 24000 ± 11000 nM, respectively.

As to `CCC1=C(C)CN(C(=O)NCCc2ccc(S(=O)(=O)NC(=O)N[C@H]3CC[C@H](C)CC3)cc2)C1=O` [Glimepiride], the IC50 came to 2.3 ± 1.2 nM in test [1], 17 ± 9 nM in test [2] and 33 ± 23 nM in test [3].

On to `COc1ccc2c(c1)C(=O)N(CCc1ccc(S(=O)(=O)NC(=O)NC3CCCCC3)cc1)C(=O)C2(C)C` [Gliquidone], for which the values for the IC50 in test [1], in test [2] and in test [3] were 6.9 ± 5 nM, 780 ± 580 nM and 4500 ± 3600 nM, respectively.

For `CC1(NC2=NS(=O)(=O)c3sc(Cl)cc3N2)CC1` [NN414], the EC50 in test [3] was greater than 30000 nM.

For `CC(C)[C@H]1CC[C@H](C(=O)N[C@H](Cc2ccccc2)C(=O)O)CC1` [Nateglinide], the IC50 in test [1] is 44 ± 13 nM; in test [2], 16000 ± 7300 nM; in test [3], 14000 ± 6700 nM.

As for `CCC(C)(C)NC(=NC#N)Nc1cccnc1` [P1075], the EC50 is greater than 30000 nM in test [1], 510 ± 270 nM in test [2] and 52 ± 24 nM in test [3].

With `C1CCC(/N=C(\NC23CC4CC(CC(C4)C2)C3)N2CCOCC2)CC1` [PNU-37883A], the figures for the IC50 in test [1], in test [5] and in test [3] were greater than 100000 nM, greater than 100000 nM and 290 ± 210 nM, respectively.

Molecule `CC(N/C(=N\C#N)Nc1ccncc1)C(C)(C)C` (centres unmarked) [Pinacidil] yielded an EC50 in test [1] greater than 30000 nM.

Regarding `CCOc1cc(CC(=O)N[C@@H](CC(C)C)c2ccccc2N2CCCCC2)ccc1C(=O)O` [Repaglinide], the IC50 turned out to be 3.9 ± 1.4 nM in test [1], 0.94 ± 0.46 nM in test [2] and 1.1 ± 0.6 nM in test [3].

As to `CN(CCOc1ccc(CC2SC(=O)NC2=O)cc1)c1ccccn1` (centres unmarked) [Rosiglitazone], the IC50 in test [1] was greater than 100000 nM; in test [5], greater than 100000 nM; in test [3], 8500 ± 4600 nM.

As for `CCCCNC(=O)NS(=O)(=O)c1ccc(C)cc1` [Tolbutamide], the IC50 in test [1] was 7500 ± 4100 nM; in test [2] it was 71000 ± 12000 nM; in test [3], 41000 ± 11000 nM.

For the molecule `Cc1c(C)c2c(c(C)c1O)CCC(C)(COc1ccc(CC3SC(=O)NC3=O)cc1)O2` (centres unmarked) [Troglitazone], the values for the IC50 in test [1], in test [2] and in test [3] were 14000 ± 3100 nM, 30000 ± 16000 nM and 10000 ± 6500 nM, respectively.

In the case of `CC(=O)N(O)[C@@H]1c2cc(C#N)ccc2OC(C)(C)[C@H]1O` [Y-26763], the EC50 worked out at 4100 ± 2100 nM in test [1], 1300 ± 970 nM in test [2] and 75 ± 42 nM in test [3].

Consider `CC(O)(C(=O)Nc1ccc(S(=O)(=O)c2ccccc2)cc1)C(F)(F)F` (centres unmarked) [ZM226600], for which the EC50 in test [1] was greater than 30000 nM; in test [2], 2800 ± 2200 nM; in test [3], 150 ± 90 nM.
